Assay results reported in the NIST ThermoML archive (doi:10.1021/acs.jced.8b00560).
Numbers after ± are expanded uncertainties.

Settings: Crystal; DSC

Triple point temperature | SMILES
398.5 ± 3.1 K | NC(=O)c1cccnc1 [3-pyridinecarboxamide]
392.5 ± 3.1 K | O=C(O)c1ccccc1 [benzoic acid]
